# Patent publication US20240018153A1, “BENZENESULFONAMIDE DERIVATIVES AND USES THEREOF” (2692372 ONTARIO, INC., priority 2020, published 2024)
# Columns and labels:
# EGFR [1] = target: T1, EGFR (Homo sapiens (Human), UniProt P00533); test: HTRF KinEASE-TK kinase assay, EGFR; assay type: biochemical; conditions: 3 h preincubation; for remaining activity at 1 µM: 1 μM compound, read-out: % EGFR Remaining activity vs DMSO (1 μM, 3 h); for remaining activity at 10 µM: 10 μM compound, read-out: % EGFR Remaining activity vs DMSO (10 μM, 3 h)
# Outline: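 Buffer contained 5 mM MgCl2, 2 mM MnCl2 and 1 mM TCEP; compounds at two final concentrations, 1 and 10 uM, with 0.5% DMSO, pre-incubated with the enzyme.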
# BMX = BMX (Homo sapiens (Human), UniProt P51813); test: HTRF KinEASE-TK kinase assay, BMX; assay type: biochemical; conditions: for remaining activity at 1 µM: 1 uM compound; for remaining activity at 1 µM / remaining activity at 10 µM: 3 h preincubation; for remaining activity at 10 µM: 10 uM compound; for IC50: dose response
# Outline: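 Phosphorylation was quantified by HTRF KinEASE-TK as the 665/620 nm ratio, read 60 min after EDTA stop with SA-XL665 (31.25 nM) and europium antibody. Before the reaction, 3.03 nM BMX was preincubated with compound for 3 hours at room temperature, and the reaction was started with biotinylated substrate plus ATP.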
# JAK3 = JAK3 (Homo sapiens (Human), UniProt P52333); test: HTRF KinEASE-TK kinase assay, JAK3; assay type: biochemical; conditions: for remaining activity at 1 µM: read-out: % JAK3 Remaining activity vs DMSO (1 μM, 3 h); for remaining activity at 10 µM: read-out: % JAK3 Remaining activity vs DMSO (10 μM, 3 h)
# Outline: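 HTRF read-out: the Em665/Em620 ratio, measured 60 min after stopping with EDTA, 31.25 nM SA-XL665 and 100-fold diluted Eu-antibody, was taken as phosphorylated substrate. Beforehand, 0.21 nM JAK3 (0.0133 ng/µl) sat with compound for 3 h at room temperature, then biotinylated substrate plus ATP started the reaction.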
# BTK = BTK (Homo sapiens (Human), UniProt Q06187); test: HTRF KinEASE-TK kinase assay, BTK; assay type: biochemical; conditions: 3 h preincubation; for remaining activity at 1 µM: 1 μM compound, read-out: % BTK Remaining activity vs DMSO (1 μM, 3 h); for remaining activity at 10 µM: 10 μM compound, read-out: % BTK Remaining activity vs DMSO (10 μM, 3 h); for IC50: dose response, read-out: BTK Inhibition IC50
# Outline: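 Read-out was the 665 nm to 620 nm ratio, taken 60 min after detection, reflecting phosphorylated biotinylated substrate. Before this, BTK reacted 45 min with substrate and ATP in kinase buffer supplemented with MnCl2 (10 mM), MgCl2 (5 mM), ATPγS (1 uM) and TCEP (1 mM).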
# EGFR [2] = target: T1, EGFR; test: A549 cell lysis and immunoassay, total EGFR degradation; assay type: cell-based; parameters: key: Y: EGFR bound in cells and EGFR degradation occurred; conditions: A549 cells; for EGFR degradation (A549, compound concentration, 24 h): compound concentration 10, 24 h
# Protocol: A549 cells (ATCC) were cultured in Dulbecco's Modified Eagle's Medium (DMEM) (Wisent) supplemented with 10% FBS and 1% penicillin/streptomycin. Cells were seeded in 6-well plates at 530,000 cells/well and incubated at 37° C., 5% CO2 for 16 hours. Cells were starved in DMEM containing 1% FBS for 4 hours before they were treated with the indicated concentrations of compound or DMSO alone and incubated at 37° C., 5% CO2 for 24 hours. Prior to cell harvest and lysis, 50 ng/ml human epidermal growth factor (hEGF) (Sigma) was added to the cells and incubated at 37° C., 5% CO2 for 10 minutes. Conditioned media was discarded, and adherent cells were washed with PBS before they were scraped on ice. Cell suspensions were centrifugated at 2,000 RPM for 5 minutes at 4° C. and supernatants were discarded. Cell pellets were resuspended with 1× RIPA buffer (Millipore) and incubated on ice for 15 minutes. Protein lysates were extracted by centrifugating at 20,000 RPM for 20 minutes at 4° C. Proteins were separated and total EGFR protein levels were quantified by Simple Western Immunoassay (ProteinSimple) using the Protein Normalization Assay Module for Jess according to the manufacturer's protocol, using a protein concentration of 0.125 μg/μl and an antibody targeting EGFR (clone #EP38Y, Abcam) diluted to 1:400. Phosphorylated EGFR protein levels were quantified with the same assay using a protein concentration of 1 μg/μl and an antibody targeting pEGFR (Y1068) (Cell Signalling) diluted to 1:25. EGFR and phosphorylated EGFR levels were normalized to the Jess Protein Normalization Reagent loading control and subsequently to the DMSO control.
# RIPK2 = RIPK2 (Homo sapiens (Human), UniProt O43353); test: In vitro RIPK2 inhibition; assay type: biochemical; conditions: for remaining activity at 1 µM: read-out: % RIPK2 Remaining activity vs DMSO (1 μM, 3 h); for remaining activity at 10 µM: read-out: % RIPK2 Remaining activity vs DMSO (10 μM, 3 h)
# FGFR4 = FGFR4 (Homo sapiens (Human), UniProt P22455); test: HTRF KinEASE-TK kinase assay, FGFR4; assay type: biochemical; conditions: for remaining activity at 1 µM: read-out: % FGFR4 Remaining activity vs DMSO (1 μM, 3 h); for remaining activity at 10 µM: read-out: % FGFR4 Remaining activity vs DMSO (10 μM, 3 h)
# Outline: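 HTRF ratio (Em 665/620 nm) measured 60 min after EDTA stop with SA-XL665 (31.25 nM) and europium antibody reflects phosphorylated biotinylated substrate. Before substrate/ATP addition, 5.12 nM (0.333 ng/ul) FGFR4 sat with compound 3 h at room temperature.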
# Chain of JAK3 (P52333 781-1124): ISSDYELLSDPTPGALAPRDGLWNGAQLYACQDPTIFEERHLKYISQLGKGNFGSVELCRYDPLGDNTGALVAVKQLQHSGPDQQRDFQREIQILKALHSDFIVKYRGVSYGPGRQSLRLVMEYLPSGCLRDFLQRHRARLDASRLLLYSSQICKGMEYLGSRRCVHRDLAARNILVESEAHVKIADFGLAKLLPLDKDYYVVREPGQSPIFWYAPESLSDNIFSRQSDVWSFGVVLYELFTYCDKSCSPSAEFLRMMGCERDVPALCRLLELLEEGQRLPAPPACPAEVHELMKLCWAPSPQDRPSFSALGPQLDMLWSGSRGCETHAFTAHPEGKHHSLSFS
# Chain of BMX (P51813 whole entry): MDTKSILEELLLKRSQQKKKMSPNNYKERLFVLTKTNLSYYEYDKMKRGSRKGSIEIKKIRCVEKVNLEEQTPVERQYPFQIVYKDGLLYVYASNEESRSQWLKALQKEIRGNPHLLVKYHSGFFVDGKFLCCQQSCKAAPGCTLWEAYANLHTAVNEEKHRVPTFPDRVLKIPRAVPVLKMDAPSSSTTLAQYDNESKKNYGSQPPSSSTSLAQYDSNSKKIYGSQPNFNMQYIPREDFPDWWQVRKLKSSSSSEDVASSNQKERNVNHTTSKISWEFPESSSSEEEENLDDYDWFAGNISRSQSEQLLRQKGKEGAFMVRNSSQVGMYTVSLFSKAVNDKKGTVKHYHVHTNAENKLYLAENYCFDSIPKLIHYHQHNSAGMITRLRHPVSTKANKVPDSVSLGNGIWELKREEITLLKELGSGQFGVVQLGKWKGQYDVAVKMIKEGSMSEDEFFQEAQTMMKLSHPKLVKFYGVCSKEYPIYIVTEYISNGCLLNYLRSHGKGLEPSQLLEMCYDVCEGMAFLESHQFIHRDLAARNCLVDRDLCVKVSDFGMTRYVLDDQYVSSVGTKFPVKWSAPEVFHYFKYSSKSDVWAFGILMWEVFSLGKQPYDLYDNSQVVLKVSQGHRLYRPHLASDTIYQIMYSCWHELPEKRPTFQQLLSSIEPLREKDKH
# T1 sequence (P00533 25-1210): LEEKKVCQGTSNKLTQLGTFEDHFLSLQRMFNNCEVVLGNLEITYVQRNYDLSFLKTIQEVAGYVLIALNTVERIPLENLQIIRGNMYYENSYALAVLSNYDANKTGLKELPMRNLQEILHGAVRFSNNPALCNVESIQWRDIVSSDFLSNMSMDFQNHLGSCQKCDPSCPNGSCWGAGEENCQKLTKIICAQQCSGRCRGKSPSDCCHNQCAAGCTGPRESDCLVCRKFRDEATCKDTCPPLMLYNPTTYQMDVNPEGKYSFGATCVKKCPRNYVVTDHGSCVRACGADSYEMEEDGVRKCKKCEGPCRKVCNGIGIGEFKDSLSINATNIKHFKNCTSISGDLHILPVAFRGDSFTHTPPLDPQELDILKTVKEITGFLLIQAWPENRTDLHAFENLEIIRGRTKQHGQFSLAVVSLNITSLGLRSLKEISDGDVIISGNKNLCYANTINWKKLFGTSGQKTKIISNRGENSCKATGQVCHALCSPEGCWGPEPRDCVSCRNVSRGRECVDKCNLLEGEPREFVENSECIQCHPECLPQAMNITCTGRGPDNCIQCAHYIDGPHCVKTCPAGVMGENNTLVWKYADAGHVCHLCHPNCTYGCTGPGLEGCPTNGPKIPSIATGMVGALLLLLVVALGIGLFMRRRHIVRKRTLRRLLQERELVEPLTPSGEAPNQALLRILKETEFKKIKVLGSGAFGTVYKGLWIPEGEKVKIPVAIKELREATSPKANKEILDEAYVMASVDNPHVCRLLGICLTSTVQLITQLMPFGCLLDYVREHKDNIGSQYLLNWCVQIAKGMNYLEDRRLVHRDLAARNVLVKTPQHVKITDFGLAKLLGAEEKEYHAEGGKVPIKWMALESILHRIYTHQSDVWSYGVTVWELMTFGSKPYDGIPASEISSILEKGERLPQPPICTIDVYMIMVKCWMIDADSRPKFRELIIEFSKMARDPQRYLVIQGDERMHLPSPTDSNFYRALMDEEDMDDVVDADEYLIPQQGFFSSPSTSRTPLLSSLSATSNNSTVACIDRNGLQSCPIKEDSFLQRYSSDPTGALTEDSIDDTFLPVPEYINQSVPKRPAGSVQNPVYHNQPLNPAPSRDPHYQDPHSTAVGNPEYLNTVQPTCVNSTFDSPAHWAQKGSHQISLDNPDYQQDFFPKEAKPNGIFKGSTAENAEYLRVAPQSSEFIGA
# Chain of BTK (Q06187 whole entry): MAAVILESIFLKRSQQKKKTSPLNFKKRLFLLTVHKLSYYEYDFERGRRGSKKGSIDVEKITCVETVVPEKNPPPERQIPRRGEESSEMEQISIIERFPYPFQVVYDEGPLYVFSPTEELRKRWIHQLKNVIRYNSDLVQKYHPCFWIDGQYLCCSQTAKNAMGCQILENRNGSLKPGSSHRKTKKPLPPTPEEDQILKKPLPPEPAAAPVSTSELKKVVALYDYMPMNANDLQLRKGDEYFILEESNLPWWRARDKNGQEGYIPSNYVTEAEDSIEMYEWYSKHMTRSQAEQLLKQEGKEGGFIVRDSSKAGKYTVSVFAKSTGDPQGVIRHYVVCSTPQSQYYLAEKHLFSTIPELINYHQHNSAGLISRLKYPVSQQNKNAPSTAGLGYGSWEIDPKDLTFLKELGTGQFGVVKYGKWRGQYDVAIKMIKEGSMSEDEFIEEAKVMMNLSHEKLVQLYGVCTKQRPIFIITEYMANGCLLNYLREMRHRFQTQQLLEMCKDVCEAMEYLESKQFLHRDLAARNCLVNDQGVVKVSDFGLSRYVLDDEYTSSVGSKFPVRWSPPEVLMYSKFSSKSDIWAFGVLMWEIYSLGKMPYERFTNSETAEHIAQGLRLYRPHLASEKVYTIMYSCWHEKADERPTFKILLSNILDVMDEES
# Chain of FGFR4 (P22455 22-802): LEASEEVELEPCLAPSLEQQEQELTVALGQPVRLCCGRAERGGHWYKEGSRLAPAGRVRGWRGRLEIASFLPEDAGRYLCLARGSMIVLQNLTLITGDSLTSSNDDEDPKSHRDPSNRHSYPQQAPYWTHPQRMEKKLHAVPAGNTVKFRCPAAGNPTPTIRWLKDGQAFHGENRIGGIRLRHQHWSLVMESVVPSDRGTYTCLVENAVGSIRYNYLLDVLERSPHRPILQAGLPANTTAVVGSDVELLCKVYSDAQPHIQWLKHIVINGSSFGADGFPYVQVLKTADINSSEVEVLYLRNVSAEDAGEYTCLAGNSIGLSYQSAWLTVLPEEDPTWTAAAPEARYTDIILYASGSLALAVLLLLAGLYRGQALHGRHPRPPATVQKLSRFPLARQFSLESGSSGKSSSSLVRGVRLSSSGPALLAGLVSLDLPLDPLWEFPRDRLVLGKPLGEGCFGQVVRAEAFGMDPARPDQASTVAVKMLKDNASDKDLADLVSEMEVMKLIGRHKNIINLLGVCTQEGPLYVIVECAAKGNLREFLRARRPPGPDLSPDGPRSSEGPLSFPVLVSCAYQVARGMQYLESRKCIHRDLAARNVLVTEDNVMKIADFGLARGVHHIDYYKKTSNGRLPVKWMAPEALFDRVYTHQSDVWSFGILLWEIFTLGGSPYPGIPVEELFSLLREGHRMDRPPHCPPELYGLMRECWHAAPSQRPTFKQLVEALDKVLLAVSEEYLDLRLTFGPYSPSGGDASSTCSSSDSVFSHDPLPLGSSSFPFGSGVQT
# Chain of RIPK2 (O43353 whole entry, species assumed): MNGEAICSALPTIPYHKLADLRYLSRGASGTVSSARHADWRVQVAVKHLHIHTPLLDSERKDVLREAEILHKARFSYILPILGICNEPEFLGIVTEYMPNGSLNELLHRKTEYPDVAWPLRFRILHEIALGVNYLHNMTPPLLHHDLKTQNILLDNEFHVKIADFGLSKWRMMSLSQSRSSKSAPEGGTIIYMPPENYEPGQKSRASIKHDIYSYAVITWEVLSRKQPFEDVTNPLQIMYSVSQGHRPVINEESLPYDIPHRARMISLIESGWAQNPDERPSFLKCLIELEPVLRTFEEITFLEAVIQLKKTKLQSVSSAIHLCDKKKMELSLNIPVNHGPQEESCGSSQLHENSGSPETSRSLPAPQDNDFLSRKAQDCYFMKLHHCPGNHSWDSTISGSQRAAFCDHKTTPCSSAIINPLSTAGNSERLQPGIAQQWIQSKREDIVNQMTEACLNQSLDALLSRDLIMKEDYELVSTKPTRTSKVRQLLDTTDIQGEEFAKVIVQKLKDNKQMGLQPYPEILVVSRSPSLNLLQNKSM
remaining activity at 1 µM (EGFR [1]),remaining activity at 10 µM (EGFR [1]),remaining activity at 1 µM (BMX),remaining activity at 10 µM (BMX),remaining activity at 1 µM (JAK3),remaining activity at 10 µM (JAK3),remaining activity at 1 µM (BTK),remaining activity at 10 µM (BTK),IC50 (BTK),"EGFR degradation (A549, 1 μM, 24 h) (EGFR [2])","EGFR degradation (A549, compound concentration, 24 h) (EGFR [2])",remaining activity at 1 µM (RIPK2),remaining activity at 10 µM (RIPK2),remaining activity at 1 µM (FGFR4),remaining activity at 10 µM (FGFR4),"IC50 (EGFR [1]; dose response, read-out: EGFR Inhibition IC50)",IC50 (BMX),IC50 (JAK3; dose response),SMILES
> 90%,< 50%,< 50%,< 50%,> 90%,50 to 90%,< 50%,< 50%,< 1000 nM,Y,Y,50 to 90%,> 90%,50 to 90%,< 50%,,,,"CN(CCn1nc(-c2ccc(Oc3ccccc3)cc2)c2c(N)ncnc21)C(=O)c1c(F)c(F)c(F)c(F)c1S(N)(=O)=O [Compound I-33, N-(2-(4-amino-3-(4-phenoxyphenyl)-1H-pyrazolo[3,4-d]pyrimidin-1-yl)ethyl)-2,3,4,5-tetrafluoro-N-methyl-6-sulfamoylbenzamide]"
> 90%,> 90%,< 50%,< 50%,> 90%,50 to 90%,< 50%,< 50%,< 1000 nM,Y,Y,> 90%,> 90%,> 90%,< 50%,,,,"C[S+]([O-])c1c(F)c(F)c(F)c(F)c1C(=O)N1CCC[C@@H](n2nc(-c3ccc(Oc4ccccc4)cc3)c3c(N)ncnc32)C1 (stereo partly drawn) [Compound I-36, ((R)-3-(4-amino-3-(4-phenoxyphenyl)-1H-pyrazolo[3,4-d]pyrimidin-1-yl)piperidin-1-yl)(2,3,4,5-tetrafluoro-6-(methylsulfinyl)phenyl)methanone]"
< 50%,< 50%,< 50%,< 50%,< 50%,< 50%,< 50%,< 50%,< 1000 nM,Y,Y,50 to 90%,> 90%,> 90%,> 90%,< 1000 nM,< 1000 nM,> 1000 nM,"C[S@+]([O-])c1c(F)c(F)c(F)c(F)c1C(=O)N1CC(n2nc(-c3ccc(Oc4ccccc4)cc3)c3c(N)ncnc32)C1 (racemic) [Compound I-37, (3-(4-amino-3-(4-phenoxyphenyl)-1H-pyrazolo[3,4-d]pyrimidin-1-yl)azetidin-1-yl)(2,3,4,5-tetrafluoro-6-(methylsulfinyl)phenyl)methanone]"
50 to 90%,< 50%,< 50%,< 50%,> 90%,50 to 90%,< 50%,50 to 90%,< 1000 nM,Y,Y,> 90%,> 90%,50 to 90%,50 to 90%,,< 1000 nM,,"Nc1ncnc2c1c(-c1ccc(Oc3ccccc3)cc1)nn2CCNC(=O)c1c(F)c(F)c(F)c(F)c1S(N)(=O)=O [Compound I-42, N-(2-(4-amino-3-(4-phenoxyphenyl)-1H-pyrazolo[3,4-d]pyrimidin-1-yl)ethyl)-2,3,4,5-tetrafluoro-6-sulfamoylbenzamide]"
